Source: patent US20130202629A1, “USES OF PHOSPHOLIPID CONJUGATES OF SYNTHETIC TLR7 AGONISTS” (The Regents of the University of California, priority 2010, published 2013)
Where “and” joins values, the source holds several entries; their conditions need not be identical. Equal entries are not always repeated.

Assays:
C57BL/6 mice = type: in vivo, mouse
Experimental: Anti-OVA antibodies of the IgG subclasses (and in some embodiments specifically IgG1 and IgG2) were measured by ELISA, as described in Cho, H. J et al., “Immunostimulatory DNA-based vaccines induce cytotoxic lymphocyte activity by a T-helper cell-independent mechanism” [see comments], Nat. Each ELISA plate contained a titration of a previously quantitated serum to generate a standard curve. The titer of this standard was calculated as the highest dilution of serum that gave an absorbance reading that was double the background. The various sera samples were tested at a 1:100 dilution. The results are expressed in units per mL, calculated based on the units/mL of the standard serum, and represent the mean±SEM of five animals in each group. * and T denote P<0.05 and P<0.01 by One-way ANOVA compared to the mice immunized with OVA mixed with vehicle, respectively.
Spleenocytes were prepared from the harvested spleens. […] The levels of IFNα in the culture supernatants were measured by ELISA (BD Bioscience PharMingen) as per the manufacturer's instructions (Kobayashi, H et al., Prepriming: a novel approach to DNA-based vaccination and immunomodulation”, Springer Semin. Immunopathol., 22:85 (2000)), and the results illustrated in FIG. 5C. Average total spleen cell number in each group were calculated and compared to the PBS-immunized groups to monitor the spleen cell proliferation. Data are mean±SEM of five mice and are representative of three independent experiments.
The efficiency of adjuvanticity was assessed by measurement of the levels and isotypes of the antigen-specific IgG that the vaccine induces, in particular IgG1 and IgG2 (Mosmann, T. R., and Coffman, R. L., ‘TH1 and TH2 cells: different patterns of lymphokine secretion lead to different functional properties’, Annual Review Immunology, 7:145 (1989)). […] ISS-ODN was used as a potent Th1 adjuvant positive control.

[1] = Nanoparticle size and stability in PBS (Malvern Zetasizer); type: physicochemical; details: 50 μM or 100 μM
Experimental: 1V270 was dissolved in Phosal 50 PG (Phospholipid Gmbh, Cologne, Germany) to make a 20× concentrated solution. The Phosal 50 PG-1V270 mixture was further diluted (1:19) with nanopure water to make a 5% Phosal 50 PG:water suspension. The suspension was vortexed vigorously and sonicated in a sonicating bath for 10 minutes. The suspension was further sonicated with a probe sonicater (Branson Sonifier Cell Disrupter 185) at 30% power for a total of 30 seconds at 10 second intervals with 10 seconds rest between so as to not overheat the suspension. Finally, the suspension was passed through a 100 nm filter with syringe extruder a total of 10 times back and forth. The final nanoparticles were analyzed with a Malvern Zetasizer to check size distribution. The resulting particles may be referred to as nanoliposomes (a submicron bilayer lipid vesicle) (see Chapter 2 by Mozafari in: Liposomes, Methods in Molecular Biology, vol. 605, V. Weissing (ed.), Humana Press, the disclosure of which is incorporated by reference herein). Nanoliposomes provide more surface area and may increase solubility, bioavailability and targeting.
UV-1V270 particles were diluted in PBS to 50 μM (A) or 100 μM (B) and particle size measured over time. […] The particle size of UV-1V270 in PBS was relatively constant with an average of about 110 nm regardless of concentration.

TLR7 = biological target: T1, TLR7 (Homo sapiens, UniProt Q9NYK1); assay: Cytokine induction (IL-6, IFNalpha1; Luminex) in human PBMC; type: cell-based; details: 18 hours, IL-6 (FIG. 3A)
T1 sequence (Q9NYK1 27-1049): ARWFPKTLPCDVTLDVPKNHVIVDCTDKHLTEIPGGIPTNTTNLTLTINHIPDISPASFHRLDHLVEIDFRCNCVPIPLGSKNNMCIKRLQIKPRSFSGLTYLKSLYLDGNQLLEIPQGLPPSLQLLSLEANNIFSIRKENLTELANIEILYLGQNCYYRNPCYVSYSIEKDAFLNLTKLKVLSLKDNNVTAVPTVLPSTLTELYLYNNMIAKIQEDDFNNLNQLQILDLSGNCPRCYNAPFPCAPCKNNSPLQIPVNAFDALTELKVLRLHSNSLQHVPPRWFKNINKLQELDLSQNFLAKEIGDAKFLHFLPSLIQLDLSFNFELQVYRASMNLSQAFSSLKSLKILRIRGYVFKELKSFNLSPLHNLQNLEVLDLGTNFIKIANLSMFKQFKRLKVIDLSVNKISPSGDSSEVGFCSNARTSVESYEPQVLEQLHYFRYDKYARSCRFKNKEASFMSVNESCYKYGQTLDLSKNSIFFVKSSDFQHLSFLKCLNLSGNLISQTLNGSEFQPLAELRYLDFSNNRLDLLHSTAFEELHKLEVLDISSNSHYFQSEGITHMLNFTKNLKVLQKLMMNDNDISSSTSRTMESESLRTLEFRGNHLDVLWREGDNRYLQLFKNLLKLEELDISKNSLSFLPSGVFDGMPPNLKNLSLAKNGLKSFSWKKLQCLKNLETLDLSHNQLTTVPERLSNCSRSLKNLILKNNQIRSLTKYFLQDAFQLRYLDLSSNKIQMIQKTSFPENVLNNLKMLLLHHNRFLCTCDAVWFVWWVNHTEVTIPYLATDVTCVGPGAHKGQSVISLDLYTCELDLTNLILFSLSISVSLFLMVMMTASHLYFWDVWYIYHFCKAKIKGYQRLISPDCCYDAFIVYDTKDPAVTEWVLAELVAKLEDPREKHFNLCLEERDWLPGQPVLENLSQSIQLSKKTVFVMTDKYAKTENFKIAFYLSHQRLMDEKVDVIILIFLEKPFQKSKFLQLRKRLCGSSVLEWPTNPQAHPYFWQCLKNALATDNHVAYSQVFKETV

In the case of `CCCCCCCC/C=C\CCCCCCCC(=O)OCC(COP(=O)(O)OCCNC(=O)c1ccc(Cn2c(=O)[nH]c3c(N)nc(OCCOC)nc32)cc1)OC(=O)CCCCCCC/C=C\CCCCCCCC` (stereo not drawn) [Compound 6, 2-(4-((6-amino-2-(2-methoxyethoxy)-8-oxo-7H-purin-9(8H)-yl)methyl)benzamido)ethyl 2,3-bis(oleoyloxy)propyl phosphate], the “adjuvant activity when administered with the antigen ovalbumin” value (C57BL/6 mice; mouse, in vivo) is reported as “potent adjuvant”, the “earliest induction of OVA-specific antibodies of the IG subclass (FIG. 5A)” value (C57BL/6 mice; s.c. 20 μg OVA + 10 nmol conjugate on days 0 and 7) is reported as 14 days and the “OVA-specific IFN secretion by spleen cells” value (C57BL/6 mice; splenocytes of day 56 restimulated with OVA (FIG. 5C)) is reported as “enhanced”. For the same molecule, the “nanoparticle stability over time” value [1] was “generally stable over time”, the “particle size, average diameter” value ([1]; regardless of concentration) was “about 110 nm” and the “order of TLR7 conjugate potency” value (TLR7) was “(4b)>(6)>(9)>/=SM>(8) and 4b>6>9>SM=8”.
